Legend:
[1] = system: Bowes-Melanoma-Zellen; conditions: Kooistra et al.; cited from earlier work
[2] = system: CHO-Zellen; assay: Cell growth / cell division of transformed CHO cells; format: cell-based, chinesische Hamster; conditions: compared with Buttersäure
Procedure: (§1) Die Zellkulturen werden bei 37°C in einem Hereaus-Brutschrank inkubiert und mit einem Kohlendioxid-Luftgemisch von 7,5% CO₂ in einer relativen Luftfeuchtigkeit von 100% belüftet. Je nach Verfahrensansatz werden unterschiedliche Kulturgefäße benutzt: Spinnergefäße für 100-1000 ml Medium, Roux-Schalen (Nunc) 175 cm² (70-100 ml Medium), 75 cm² (30-50 ml Medium), 25 cm² (7-10 ml Medium) und Mehrfachkulturschalen von Costar mit 2 cm² für 1 ml Kulturen. Für die Stammhaltung werden die Zellen in einer Dichte von 0,2-0,3 x 10⁶ Zellen/ml eingesetzt und alle 2-3 Tage subkloniert.
(§2) Für die Produktion von t-PA in serumhaltigem Medium wurde als frisches Medium F12/DMEM + 7,5% FKS + Gentamycin verwendet. Die resultierende Suspension kann in 2 cm² 24 Wells-Platten bei einer Zelldichte von 0,2-0,3 x 10⁶ Zellen/ml angesetzt werden.
Für die Produktion von t-PA in serumfreiem Medium wurden die Zellen zuvor 3-4 Tage in einem Medium von 1-2% FKS adaptiert, wieder abzentrifugiert und das Zellpellet in serumfreiem Medium resuspendiert und anschließend in 2 cm² 24 Wells-Platten in einer Zelldichte von 0,4-0,5 x 10⁶ Zellen/ml überführt.

[3] = system: CHO-Zellen; assay: Extracellular protein content and [3H]-leucine incorporation in CHO cells, serum-free medium; format: cell-based, chinesische Hamster
[4] = system: CHO-Zellen; assay: t-PA production in transformed CHO cells, medium with 7.5% FKS, supernatant, direct chromogenic assay (DCA); format: cell-based, chinesische Hamster
Source text: Der Vektor für die t-PA-Produktion wurde in einem Subklon, CHO-K1-DUX B11, integriert (Urlaub et al., Proceedings of the National Academy of Science, USA, 77: 4216-4220, 1980). Diese Zell-Linie, eine Dihydrofolat Reduktase negative Mutante (DHFR-), ist für eine DHFR-abhängige Selektion der transfizierten Zellklone geeignet. Der Vektor für die humane c-DNA kann ein bekannter Plasmid-Vektor pBR-322 oder deren Abkömmling von Escherichia coli sein. Die Promotorregion für das in Frage kommende Gen und für das DHFR-Gen stammt aus SV 40 und die Terminationsregion für beide Gene von einem Hepatitis B-Oberflächenantigen. In den Beispielen wurden CHO-K1-DUX B11-Zellen, die durch die Plasmide pETPER oder pEPEFR transformiert sind, verwendet (siehe EP-A 0117059).
as §1
Die Protein-Produktion stimulierenden Substanzen können zu den verschiedenen Zeitpunkten jeweils in einer 1:100 Verdünnung zugegeben werden, d.h. sie wurden zuerst in Medium gelöst oder, wenn sie schwerlöslich sind, erst in Äthylalkohol gelöst und danach in Medium zugesetzt und dann das diese Substanz enthaltende Medium dem zellenthaltenden Medium im Verhältnis 1:100 v/v zugegeben.
In den folgenden Beispielen wurden, um die Stimulierung der t-PA-Synthese hervorzurufen, Zellen einer exponentiell wachsenden Kultur entnommen und in Plastikröhrchen (Falcon) 10 Min. bei 1000 x g in einer Beckmann T 3-6 Zentrifuge abzentrifugiert. Nach Dekantieren des Überstandes wurde das Zellpellet mit frischem Medium resuspendiert.
as §2
Aliquots von Zellüberständen und Zellextrakten wurden zu verschiedenen Zeitpunkten abgenommen bzw. hergestellt. Die Messung der Proben erfolgte entweder sofort oder nach Aufbewahrung bei -20°C mit folgenden Methoden:
Von dem synthetischen Peptidsubstrat S-2288 (D-H-Ile-Pro-Arg-p-Nitroanilin) der Firma Kabi Diagnostica wird durch das t-PA p-Nitroanilin als Reaktionsprodukt gebildet. Die Aktivität von t-PA ist zur Bildung von p-Nitroanilin proportional, die bei […], 37°C, gemessen wird.
Die spektrophotometrische Bestimmung der Enzymkinetik wurde mit einem ACP-5010-Analysengerät der Firma Eppendorf automatisch durchgeführt.
Die Aktivität des Enzyms wurde anhand dieses vorgegebenen Standards berechnet. Eine t-PA-Standardreihe von 1-15 µg/ml wurde mit einem Laborstandard hergestellt, der zu 72% aus 1-kettigem Material besteht.
Die Substratlösung (100 mM Tris/106 mM NaCl) wurde in einer Konzentration von 50 mM eingesetzt.

| SMILES | Einfluß auf die Synthese von t-PA [1] | Hemmung des Zellwachstums [2] | Einbau von [³H]-Leucin [3] | extrazellulärer Proteingehalt gegenüber der Kontrolle [3] | minimal effective concentration ([4]; CHO, read-out: für die t-PA-Stimulierung notwendige Konzentrationen) [µM] | % Steigerung der t-PA-Synthese Durchschnitt ([4]; Table 3, mean ± SE, n = 3-24, production runs of 3 to 4 days, acids added day 0 to 3, 1 ml supernatant vs control (0%), 7,5% FKS) | % Steigerung der t-PA-Synthese Maximum ([4]; Table 3, single sample, 1 ml supernatant vs control (0%), 7,5% FKS, its concentration, addition and sampling day in brackets in Tables 3/3A) | optimaler Dosisbereich ([4]; Table 3, stimulation of t-PA synthesis, medium with 7,5% FKS, bracketed value = concentration of the single (maximum) sample) | Steigerung der t-PA-Produktion ([4]; Table 4, Applikationstag 0, after 48 h growth, 7,5% FKS, 1 mM or 5 mM, 1 ml supernatant vs control (0%), mean ± SE) | Steigerung der t-PA-Produktion ([4]; Table 4, Applikationstag 1, after 48 h growth, 7,5% FKS, 1 mM or 5 mM, 1 ml supernatant vs control (0%), mean ± SE) | Steigerung der t-PA-Produktion ([4]; day 4, medium with 7,5% FKS (Abb. 7)) | prozentuale Steigerung niedriger als Buttersäure ([4]; difference to Buttersäure) |
| --- | --- | --- | --- | --- | --- | --- | --- | --- | --- | --- | --- | --- |
| CCCC(=O)Nc1ncnc2c1ncn2[C@@H]1O[C@@H]2COP(=O)(O)O[C@H]2[C@H]1OC(=O)CCC [Dibutyryl c-AMP] | keinen Einfluß |  |  |  |  |  |  |  |  |  |  |  |
| CCC(=O)O [Propionsäure] |  | in geringerem Maße | nur geringfügig gesteigert | nur gering erhöht | 5000 to 10000 | 28,0 ± 2,5% | 45,5% | 5-10 mM (10 mM) | 28,7 ± 9,3% | 24,4 ± 4,1% | 31,8% | ca. 14% |
